According to patent US11363815B2, “Trifluoroethyl thioether (sulfoxide) substituted benzene compound and use thereof” (SHENYANG UNIVERSITY OF CHEMICAL TECHNOLOGY, priority 2018, dated 2022):

Tested on: Tetranychus cinnabarinus eggs
Test: Determination of activity of Tetranychus cinnabarinus eggs (greenhouse spray test)
Assay type: in vivo
Settings: 120 h, concentration of the chemical solution 5 mg/L, spray treatment of eggs on marrow bean leaf, examined after 5 days, read-out: hatching inhibition rate for Tetranychus cinnabarinus eggs
Experimental: The acaricidal activity in a greenhouse was determined by using the compound of the present invention. The determination method is as follows: According to the solubility of the compound to be tested, the compound was dissolved with acetone or dimethyl sulfoxide, and prepared into 50 ml of solution to be tested in a concentration needed with 0.1% Tween 80 solution, in which the content of acetone or dimethyl sulfoxide comprises not more than […]. A potted marrow bean seedling with two true leaves was taken, one true leaf was removed, then 10 female adult mites of healthy Tetranychus cinnabarinus were inoculated to the leaf, the adult mites were removed after 24 hours, spray treatment was performed after examination of the number of eggs. Every treatment was performed for 3 times. After 5 days, when all the blank control eggs were incubated, the number of the eggs which were not incubated in each treatment was examined to calculate the incubation inhibition rate.

Question: With `Cc1cc(F)c(N2Cc3ccccc3C2=O)cc1SCC(F)(F)F` [compound 1] as the molecule, how does the inhibition at 5 µg/mL read?
Answer: The inhibition at 5 µg/mL was ≥ 90%.

Question: How did the inhibition at 5 µg/mL turn out when `Cc1cc(F)c(N2Cc3ccccc3C2=O)cc1[S+]([O-])CC(F)(F)F` (centres unmarked) [compound 2] was run?
Answer: The inhibition at 5 µg/mL was ≥ 90%.
